Laboratory results published in ChEMBL document CHEMBL6182833, “Design, synthesis and antiviral evaluation of triazole-linked 7-hydroxycoumarin-monoterpene conjugates as inhibitors of RSV replication” (RSC Med Chem, 2025).
The source made the active and inactive calls. The rule behind the calls is not given here.

Assays:
HEp-2 = experiment: Cytotoxicity against human HEp-2 cells assessed as cell growth inhibition measured after 24 hrs by MTT assay; assay type: functional
Human orthopneumovirus [1] = experiment: Antiviral activity against Respiratory syncytial virus type B infected in human HEp-2 cells assessed as inhibition of viral replication preincubated with cells followed by viral infection for 1 hr followed by virus washout and further incubated with compound for 6 days by ELISA method; assay type: functional, organism-based
[2] = Selectivity index, ratio of CC50 for human HEp-2 cells to IC50 for Respiratory syncytial virus type B infected in human HEp-2 cells; assay type: cell-based; conditions: read-out: Ratio CC50/IC50
Human orthopneumovirus [3] = experiment: Antiviral activity against Respiratory syncytial virus type A infected in human HEp-2 cells assessed as inhibition of viral replication preincubated with cells followed by viral infection for 1 hr followed by virus washout and further incubated with compound for 6 days by ELISA method; assay type: functional, organism-based
[4] = Selectivity index, ratio of CC50 for human HEp-2 cells to IC50 for Respiratory syncytial virus type A infected in human HEp-2 cells; assay type: cell-based; conditions: read-out: Ratio CC50/IC50
Human orthopneumovirus [5] = experiment: Antiviral activity against Respiratory syncytial virus type A infected in human HEp-2 cells assessed as inhibition of viral replication preincubated with cells and simultaneously with virus and measured after 25 hrs by ELISA method; assay type: functional, organism-based
Human orthopneumovirus [6] = experiment: Antiviral activity against Respiratory syncytial virus type A infected in human HEp-2 cells assessed as inhibition of viral replication preincubated with cells followed by compound washout followed by viral infection and measured after 25 hrs by ELISA method; assay type: functional, organism-based

SMILES	CC50 (HEp-2) [µM]	IC50 (Human orthopneumovirus [1]; read-out: IC50) [µM]	selectivity ratio [2]	IC50 (Human orthopneumovirus [3]; read-out: IC50) [µM]	IC50 (Human orthopneumovirus [3]; read-out: pIC50 (converted)) [µM]	selectivity ratio [4]	IC50 (Human orthopneumovirus [1]; read-out: pIC50 (converted)) [µM]	EC50 (Human orthopneumovirus [1]) [µM]	Activity (Human orthopneumovirus [5])	Activity (Human orthopneumovirus [6])
CC1(C)[C@@H]2CC=C(Cn3cc(COc4ccc5c6c(c(=O)oc5c4)CCCC6)nn3)[C@H]1C2	25.5	3.5	7.2	4.1	4.07	6.3	–	–	–	–
CC(C)=CCCC(C)=CCn1cc(COc2ccc3c4c(c(=O)oc3c2)CCC4)nn1	19.1	6.5	2.9	5.7	5.75	3.3	6.46	–	–	–
CC(C)CCCC(C)CCn1cc(COc2ccc3c4c(c(=O)oc3c2)CCCC4)nn1 (stereo not drawn)	22.2	4.5	4.9	3.7	3.72	6.1	4.47	–	–	–
Cc1cc(=O)oc2cc(OCC3=CC[C@H]4C[C@@H]3C4(C)C)ccc12	796	241	3.3	29	–	27.4	–	–	–	–
Cc1cc(=O)oc2cc(OCc3cn(Cc4ccc(C(C)C)cc4)nn3)ccc12	20	3.2	6.3	2.2	–	9	–	–	–	–
CC1(C)[C@H]2CC=C(COc3ccc4c5c(c(=O)oc4c3)CCC5)[C@@H]1C2	13.4	–	0.9	> 13	–	< 1	–	> 13	–	–
CC(C)=CCCC(C)=CCn1cc(COc2ccc3c(-c4ccccc4)cc(=O)oc3c2)nn1	12.3	11.3	1.1	0.3	5.75	37	11.2	–	–	–
Cc1cc(=O)oc2cc(OCc3cn(CC4=CC[C@H]5C[C@@H]4C5(C)C)nn3)ccc12	14.3	7	2	6.4	–	2.2	–	–	–	–
NC(=O)c1ncn([C@@H]2O[C@H](CO)[C@@H](O)[C@H]2O)n1 [RIBAVIRIN]	> 4100	54.5	–	31.1	–	–	–	–	–	–
CC1(C)[C@@H]2CC=C(COc3ccc4c5c(c(=O)oc4c3)CCCC5)[C@H]1C2	380	4.9	78.2	5.1	6.17	77	–	–	–	–
CC(C)=CCC/C(C)=C\Cn1cc(COc2ccc3c(C)cc(=O)oc3c2)nn1	14.7	1.1	13.4	< 0.2	0.151	> 96	1.1	–	–	–
CC1(C)[C@H]2CC=C(Cn3cc(COc4ccc5c6c(c(=O)oc5c4)CCC6)nn3)[C@@H]1C2	278	256	1.1	629	–	0.4	–	–	–	–
CC(C)=CCCC(C)=CCn1cc(COc2ccc3c4c(c(=O)oc3c2)CCCC4)nn1	279	1.2	233	0.46	0.457	605	1.2	–	inactive	–
CC(C)CCCC(C)CCn1cc(COc2ccc3c4c(c(=O)oc3c2)CCC4)nn1 (stereo not drawn)	264	0.23	1150	1.7	4.07	160	5.25	–	Weak_effect	Weak_effect
CC(C)c1ccc(Cn2cc(COc3ccc4c(-c5ccccc5)cc(=O)oc4c3)nn2)cc1	85.7	6.6	12.9	4.9	–	17	–	–	–	–
Cc1cc(=O)oc2cc(OCC3=CC[C@@H]4C[C@H]3C4(C)C)ccc12	116	4.7	24.7	1.3	–	90	–	–	–	–

SMILES	CC50 (HEp-2) [µM]	IC50 (Human orthopneumovirus [1]; read-out: IC50) [µM]	selectivity ratio [2]	IC50 (Human orthopneumovirus [3]; read-out: IC50) [µM]	IC50 (Human orthopneumovirus [3]; read-out: pIC50 (converted)) [µM]	selectivity ratio [4]	IC50 (Human orthopneumovirus [1]; read-out: pIC50 (converted)) [µM]	EC50 (Human orthopneumovirus [1]) [µM]	Activity (Human orthopneumovirus [5])	Activity (Human orthopneumovirus [6])
CC(C)c1ccc(Cn2cc(COc3ccc4c5c(c(=O)oc4c3)CCC5)nn2)cc1	38.5	25.6	1.5	21.7	–	1.8	–	–	–	–
CC(C)c1ccc(Cn2cc(COc3ccc4c5c(c(=O)oc4c3)CCCC5)nn2)cc1	37.7	23.5	1.6	22.1	–	1.7	–	–	–	–
CC1(C)[C@@H]2CC=C(COc3ccc4c5c(c(=O)oc4c3)CCC5)[C@H]1C2	416	–	81.6	4.1	–	100	–	5.1	–	–
CC(C)=CCC/C(C)=C/Cn1cc(COc2ccc3c(C)cc(=O)oc3c2)nn1	15	8.2	1.8	6.1	6.17	2.5	0.151	–	–	–
CC1(C)[C@@H]2CC=C(Cn3cc(COc4ccc5c(-c6ccccc6)cc(=O)oc5c4)nn3)[C@H]1C2	43.4	6.3	6.8	4.2	–	10	–	–	–	–
CC1(C)[C@H]2CC=C(Cn3cc(COc4ccc5c(-c6ccccc6)cc(=O)oc5c4)nn3)[C@@H]1C2	13.7	1.6	8.5	< 0.2	–	> 88	–	–	–	–
Cc1cc(=O)oc2cc(OCc3cn(CCC(C)CCCC(C)C)nn3)ccc12 (stereo not drawn)	16.1	3.9	4.1	4.3	4.27	3.8	3.89	–	–	–
CC1(C)[C@@H]2CC=C(Cn3cc(COc4ccc5c6c(c(=O)oc5c4)CCC6)nn3)[C@H]1C2	52.7	7.2	7.3	6.9	–	7.6	–	–	–	–
CC(C)=CCC/C(C)=C/CCOc1ccc2c(C)cc(=O)oc2c1	483	52.4	9.2	46.7	–	10.3	–	–	–	–
CC(C)=CCC/C(C)=C/CCOc1ccc2c3c(c(=O)oc2c1)CCCC3	51.1	0.6	85.2	0.57	–	90	–	–	–	–
CC(C)=CCC/C(C)=C/CCOc1ccc2c3c(c(=O)oc2c1)CCC3	26.6	–	1.8	> 26	–	< 1	–	15.2	–	–
CC(C)CCCC(C)CCn1cc(COc2ccc3c(-c4ccccc4)cc(=O)oc3c2)nn1 (stereo not drawn)	14.6	5.2	2.8	4.1	1.66	3.5	0.229	–	–	–
CC1(C)[C@H]2CC=C(COc3ccc4c5c(c(=O)oc4c3)CCCC5)[C@@H]1C2	334	60.5	5.5	108	–	3.5	–	–	–	–
CC1(C)[C@H]2CC=C(Cn3cc(COc4ccc5c6c(c(=O)oc5c4)CCCC6)nn3)[C@@H]1C2	30.1	1.3	23.3	0.6	–	50	–	–	Weak_effect	Weak_effect
Cc1cc(=O)oc2cc(OCc3cn(CC4=CC[C@@H]5C[C@H]4C5(C)C)nn3)ccc12	22.2	7.6	2.9	6.6	–	3.3	–	–	–	–
